Source: patent US20200087271A1, “N-CYCLOBUTYL-THIAZOL-5-CARBOXAMIDES WITH NEMATICIDAL ACTIVITY” (SYNGENTA PARTICIPATIONS AG, priority 2016, published 2020)
Read-outs that look alike come from different tables or passages of the source.

Columns and labels:
M. incognita = experiment: Meloidogyne spp. contact activity, preventive, cucumber in pots treated with WP10 suspension; format: in vivo
Experimental: Cucumber cv. Toshka seeds were sown directly into pots filled with a sandy substrate. Six days later pots were each treated with 5 ml of a WP10 suspension of the test compound. Hereafter, pots were inoculated with 3000 eggs of M. incognita. The trial was harvested fourteen days after trial application and inoculation. Root galling was assessed according to Zeck's gall index (Zeck W. M. (1971) Ein Bonitierungsschema zur Feldauswertung von Wurzelgallenbefall. Pflanzenschutznachrichten Bayer 24, 1: 144-147). Phytotoxicity was measured as a reduction of growth of the emerged cucumber seedling in comparison to the control.

[1] = tested on: Meloidogyne spp. (root-knot nematode); experiment: Meloidogyne spp. contact activity, preventive, cucumber seed in filter paper pouch; format: in vivo
Experimental: (§1) Filter papers (9 cm×4.5 cm) with a small pocket were placed into plastic pouches (12 cm×6 cm). One cucumber cv. Toshka seed was placed in the centre of the filter paper pocket of all the pouches needed for a test. […] Prior to application, the compound solution was prepared at twice the concentration required and the egg suspension is prepared with FORL nutrient solution with 3000 eggs/0.5 ml. After applying all the treatments, 3000 eggs (in 0.5 ml of FORL nutrient solution) were pipetted into the pouches. The pouches were incubated in a moist chamber for twelve days and watered regularly to maintain good filter paper moisture essential for the growing cucumber root system. After this period, the filter paper containing the germinated cucumber seedling was removed from the plastic pouch to assess the number of galls caused by Meloidogyne spp. per root system. Phytotoxicity was measured as a reduction of growth of the emerged cucumber seedling in comparison to the control.
as §1, with “system.” for “system. Phytotoxicity was measured as a reduction of growth of the emerged cucumber seedling in comparison to the control.”

LogP (Table 1) = format: physicochemical
[2] = tested on: Pratylenchus zeae (Corn Lesion Nematode); experiment: Pratylenchus zeae contact activity, preventive, coated corn seeds; format: in vivo; conditions: seed treatment 1 mg Al/seed, corn cv. LG4620, 1500 nematodes, 7 days after inoculation
Experimental: Coated corn cv. LG4620 seeds were sown 1 cm deep into 45 ml pots with soil (7:3 w/w—a mixture of 70% field soil and 30% quartz Sand). Two days after sowing the pots were infested with 1500 nematodes (all stages) of Pratylenchus zeae within a 2 ml suspension in two holes to the left and right of the seed hole. Assessment of phytotoxicity (in %) and nematode numbers within the root system occurred 7 days after inoculation. The upper plant part was cut off and the roots were washed free of soil debris. Nematodes within the roots were stained with acid fuchsin stain solution. Nematodes within the roots were quantified under a dissecting scope at 40×. Seed treatment rate: 1 mg Al/seed

[3] = 0.16 ppm, cucumber pot test, read-out: Mortality (%)
[4] = 0.8 ppm, cucumber pot test, read-out: Mortality (%)
[5] = 4 ppm, cucumber pot test, read-out: Mortality (%)
[6] = 20 ppm, cucumber pot test, read-out: Mortality (%)
[7] = 1.6 ppm, cucumber pouch test, read-out: Mortality (%)
[8] = 8 ppm, cucumber pouch test, read-out: Mortality (%)
[9] = 40 ppm, cucumber pouch test, read-out: Mortality (%)
[10] = 200 ppm, cucumber pouch test, read-out: Mortality (%)

Q: What does the source list for `Cc1nc(C(F)(F)F)c(C(=O)N[C@H]2CC[C@H]2c2ccc(Cl)cc2Cl)s1` [C, reference compound]?
A: mortality at 0.16 ppm (M. incognita): 0%; mortality at 0.8 ppm (M. incognita): 0%; mortality at 4 ppm (M. incognita): 0%; mortality at 20 ppm (M. incognita): 0%; mortality at 1.6 ppm [1]: 0%; mortality at 8 ppm [1]: 0%; mortality at 40 ppm [1]: 0%; mortality at 200 ppm [1]: 0%

Q: With `O=C(N[C@H]1CC[C@H]1c1ccc(F)cc1F)c1scnc1C(F)(F)F` [Example 6, N-[(1S,2S)-2-(2,4-difluorophenyl)cyclobutyl]-4-(trifluoromethyl)thiazole-5-carboxamide] as the compound, how does the logP (LogP (Table 1)) read?
A: 2.71

Q: Which logP (LogP (Table 1)) does the source give for `O=C(N[C@H]1CC[C@H]1c1ccc(F)cc1F)c1scnc1C(F)F` [Example 8, 4-(difluoromethyl)-N-[(1S,2S)-2-(2,4-difluorophenyl)cyclobutyl]thiazole-5-carboxamide] here?
A: 2.4

Q: For `O=C(N[C@H]1CC[C@H]1c1ccc(F)cc1Cl)c1scnc1C(F)(F)F` [Example 5, N-[(1S,2S)-2-(2-chloro-4-fluoro-phenyl)cyclobutyl]-4-(trifluoromethyl)thiazole-5-carboxamide], which “reduction of nematode population compared to the untreated control” value [2] is on record?
A: greater than 80%

Q: And the logP (LogP (Table 1))?
A: 2.92

Q: For `O=C(N[C@H]1CC[C@H]1c1ccc(Cl)cc1)c1scnc1C(F)(F)F` [Example 4, N-[(1S,2S)-2-(4-chlorophenyl)cyclobutyl]-4-(trifluoromethyl)thiazole-5-carboxamide], which melting point is on record?
A: 103 to 108 °C

Q: What about the logP (LogP (Table 1)) of the same compound?
A: 3.21

Q: Which logP (LogP (Table 1)) does the source give for `O=C(N[C@H]1CC[C@H]1c1ccc(Cl)cc1Cl)c1scnc1C(F)(F)F` [Example 7, N-[(1S,2S)-2-(2,4-dichlorophenyl)cyclobutyl]-4-(trifluoromethyl)thiazole-5-carboxamide] here?
A: 3.44

Q: What about the mortality at 0.16 ppm (M. incognita; [3]) of the same compound?
A: 14%

Q: What about the mortality at 0.8 ppm (M. incognita; [4]) of the same compound?
A: 14%

Q: And the mortality at 4 ppm (M. incognita; [5])?
A: 60%

Q: And the mortality at 20 ppm (M. incognita; [6])?
A: 99%

Q: And the mortality at 1.6 ppm [1, 7]?
A: 77%

Q: And the mortality at 8 ppm [1, 8]?
A: 90%

Q: And the mortality at 40 ppm [1, 9]?
A: 98%

Q: And the mortality at 200 ppm [1, 10]?
A: 99%

Q: With `O=C(N[C@H]1CC[C@H]1c1ccc(Cl)cc1Cl)c1scnc1C(F)F` [Example 9, N-[(1S,2S)-2-(2,4-dichlorophenyl)cyclobutyl]-4-(difluoromethyl)thiazole-5-carboxamide] as the compound, how does the logP (LogP (Table 1)) read?
A: 3.25

Q: What about the mortality at 0.16 ppm (M. incognita; [3]) of the same compound?
A: 22%

Q: What about the mortality at 0.8 ppm (M. incognita; [4]) of the same compound?
A: 61%

Q: What about the mortality at 4 ppm (M. incognita; [5]) of the same compound?
A: 97%

Q: What about the mortality at 20 ppm (M. incognita; [6]) of the same compound?
A: 98%

Q: And the mortality at 1.6 ppm [1, 7]?
A: 0%

Q: And the mortality at 8 ppm [1, 8]?
A: 64%

Q: And the mortality at 40 ppm [1, 9]?
A: 81%

Q: And the mortality at 200 ppm [1, 10]?
A: 98%
